According to ChEMBL document CHEMBL5465560, “Selectivity Literature for EUbOPEN Chemogenomic Library” (2024):

Columns and labels:
[1] = target: T1, Ephrin type-B receptor 2 (Homo sapiens) (UniProt P29323); assay: Selectivity interaction (Upstate Kinase Profiler service (Millipore)) EUB0000056c EPHB2; details: at 1 µM
T1 sequence (whole entry): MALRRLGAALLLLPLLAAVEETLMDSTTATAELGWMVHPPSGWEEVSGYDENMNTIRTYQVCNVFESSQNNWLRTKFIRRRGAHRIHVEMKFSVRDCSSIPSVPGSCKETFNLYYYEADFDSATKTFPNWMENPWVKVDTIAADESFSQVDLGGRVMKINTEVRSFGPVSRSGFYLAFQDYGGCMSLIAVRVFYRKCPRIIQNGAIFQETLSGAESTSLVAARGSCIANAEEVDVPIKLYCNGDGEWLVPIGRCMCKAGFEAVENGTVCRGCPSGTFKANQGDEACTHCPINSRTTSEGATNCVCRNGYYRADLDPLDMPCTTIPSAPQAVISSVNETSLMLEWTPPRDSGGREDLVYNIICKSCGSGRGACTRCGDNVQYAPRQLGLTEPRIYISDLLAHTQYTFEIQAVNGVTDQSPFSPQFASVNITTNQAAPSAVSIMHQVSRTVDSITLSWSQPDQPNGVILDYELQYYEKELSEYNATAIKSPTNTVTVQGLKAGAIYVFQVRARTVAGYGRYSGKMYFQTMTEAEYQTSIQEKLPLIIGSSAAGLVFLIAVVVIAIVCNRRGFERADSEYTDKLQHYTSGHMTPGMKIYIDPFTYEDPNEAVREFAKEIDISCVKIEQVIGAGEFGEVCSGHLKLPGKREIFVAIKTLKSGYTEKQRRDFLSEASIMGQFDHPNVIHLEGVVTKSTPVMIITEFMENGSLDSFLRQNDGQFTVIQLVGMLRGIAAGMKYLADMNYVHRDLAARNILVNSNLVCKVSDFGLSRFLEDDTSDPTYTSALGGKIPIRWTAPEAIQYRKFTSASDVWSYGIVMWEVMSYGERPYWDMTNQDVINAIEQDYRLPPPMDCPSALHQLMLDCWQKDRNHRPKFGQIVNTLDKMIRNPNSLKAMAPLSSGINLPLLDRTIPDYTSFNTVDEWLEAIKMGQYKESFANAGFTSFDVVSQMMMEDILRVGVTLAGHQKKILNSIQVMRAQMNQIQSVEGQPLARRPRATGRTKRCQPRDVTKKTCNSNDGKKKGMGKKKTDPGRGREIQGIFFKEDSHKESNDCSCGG

[2] = target: Tyrosine-protein kinase Lck (Homo sapiens, UniProt P06239); assay: Selectivity interaction (Kinase panel (33PanQinase(R) Activity Assay)) EUB0000877a LCK
[3] = target: Mitogen-activated protein kinase 11 (Homo sapiens) (UniProt Q15759); details: at 10 µM
Mitogen-activated protein kinase 11 (Homo sapiens), sequence (Q15759 whole entry): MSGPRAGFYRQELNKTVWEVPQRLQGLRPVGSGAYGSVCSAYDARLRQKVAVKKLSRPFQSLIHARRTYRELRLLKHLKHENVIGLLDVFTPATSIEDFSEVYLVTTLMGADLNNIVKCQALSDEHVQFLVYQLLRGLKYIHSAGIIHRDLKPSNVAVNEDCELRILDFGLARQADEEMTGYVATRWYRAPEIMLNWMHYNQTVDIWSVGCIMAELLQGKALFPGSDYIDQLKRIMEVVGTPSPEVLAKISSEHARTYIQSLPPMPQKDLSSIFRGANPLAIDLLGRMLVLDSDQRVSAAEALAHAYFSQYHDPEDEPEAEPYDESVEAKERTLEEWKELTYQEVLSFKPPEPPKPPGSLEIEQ

[4] = target: MAP kinase-activated protein kinase 2 (Homo sapiens, UniProt P49137); assay: Selectivity interaction (KinomeScan (DiscoverX)) EUB0000607a MAPKAPK2; details: at 10 µM
MAP kinase-activated protein kinase 2, sequence (P49137 whole entry, looked up): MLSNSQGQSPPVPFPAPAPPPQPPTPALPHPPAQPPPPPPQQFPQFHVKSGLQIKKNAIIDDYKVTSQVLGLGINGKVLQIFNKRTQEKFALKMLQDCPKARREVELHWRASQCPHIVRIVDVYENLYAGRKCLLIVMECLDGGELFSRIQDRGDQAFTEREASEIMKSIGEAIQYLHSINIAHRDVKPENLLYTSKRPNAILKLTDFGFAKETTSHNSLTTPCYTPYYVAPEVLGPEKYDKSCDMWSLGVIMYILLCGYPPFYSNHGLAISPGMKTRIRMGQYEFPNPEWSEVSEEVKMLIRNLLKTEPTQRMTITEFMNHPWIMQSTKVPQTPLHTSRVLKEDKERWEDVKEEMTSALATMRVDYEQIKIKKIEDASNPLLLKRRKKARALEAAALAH

[5] = target: T2, Ephrin type-B receptor 6 (Homo sapiens) (UniProt O15197); assay: Selectivity interaction (KinomeScan (DiscoverX)) EUB0000595a EPHB6; details: at 10 µM
T2 sequence (whole entry): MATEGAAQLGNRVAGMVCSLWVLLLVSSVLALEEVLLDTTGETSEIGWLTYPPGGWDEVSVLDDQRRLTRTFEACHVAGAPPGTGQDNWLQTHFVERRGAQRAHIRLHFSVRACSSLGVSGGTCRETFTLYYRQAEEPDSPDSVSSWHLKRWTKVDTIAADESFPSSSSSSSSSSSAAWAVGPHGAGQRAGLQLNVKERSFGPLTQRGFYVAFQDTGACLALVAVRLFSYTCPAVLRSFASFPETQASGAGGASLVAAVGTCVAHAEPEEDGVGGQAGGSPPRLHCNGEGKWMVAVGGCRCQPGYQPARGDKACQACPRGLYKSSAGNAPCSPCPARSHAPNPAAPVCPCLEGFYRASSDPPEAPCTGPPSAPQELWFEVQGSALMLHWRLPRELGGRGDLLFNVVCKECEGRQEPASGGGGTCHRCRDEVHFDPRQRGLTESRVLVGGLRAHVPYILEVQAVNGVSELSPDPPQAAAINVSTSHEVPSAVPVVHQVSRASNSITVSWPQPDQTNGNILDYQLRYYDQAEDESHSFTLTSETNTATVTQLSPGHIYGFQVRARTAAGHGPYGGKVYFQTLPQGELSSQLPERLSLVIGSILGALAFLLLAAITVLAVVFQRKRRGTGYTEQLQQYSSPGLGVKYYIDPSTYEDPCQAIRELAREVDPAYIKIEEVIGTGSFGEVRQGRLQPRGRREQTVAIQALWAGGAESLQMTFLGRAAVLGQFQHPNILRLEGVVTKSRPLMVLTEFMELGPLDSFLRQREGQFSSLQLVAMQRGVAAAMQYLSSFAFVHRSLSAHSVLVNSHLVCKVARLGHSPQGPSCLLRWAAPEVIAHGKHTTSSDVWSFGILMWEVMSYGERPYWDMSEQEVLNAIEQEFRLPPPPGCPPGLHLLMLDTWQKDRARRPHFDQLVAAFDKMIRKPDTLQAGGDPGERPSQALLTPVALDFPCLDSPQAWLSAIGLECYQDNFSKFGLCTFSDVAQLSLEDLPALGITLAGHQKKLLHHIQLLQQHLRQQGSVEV

[6] = target: Serine/threonine-protein kinase OSR1 (Homo sapiens) (UniProt O95747); assay: Selectivity interaction (KinomeScan (DiscoverX)) EUB0000618a OXSR1; details: at 10 µM
Serine/threonine-protein kinase OSR1 (Homo sapiens), sequence (O95747 2-527 limits assumed): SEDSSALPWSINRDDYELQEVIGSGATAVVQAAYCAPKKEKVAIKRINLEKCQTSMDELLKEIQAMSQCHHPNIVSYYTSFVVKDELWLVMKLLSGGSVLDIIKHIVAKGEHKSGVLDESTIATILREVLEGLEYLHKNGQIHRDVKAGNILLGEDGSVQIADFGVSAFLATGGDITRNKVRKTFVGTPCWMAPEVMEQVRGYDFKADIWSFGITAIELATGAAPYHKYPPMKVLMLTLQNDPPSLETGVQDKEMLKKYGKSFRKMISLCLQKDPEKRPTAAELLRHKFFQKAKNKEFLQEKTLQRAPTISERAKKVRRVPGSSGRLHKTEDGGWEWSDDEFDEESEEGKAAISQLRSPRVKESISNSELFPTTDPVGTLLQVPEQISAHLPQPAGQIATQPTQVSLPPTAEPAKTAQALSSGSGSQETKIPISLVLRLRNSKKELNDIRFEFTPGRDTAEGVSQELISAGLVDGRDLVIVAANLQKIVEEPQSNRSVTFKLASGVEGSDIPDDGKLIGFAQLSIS

[7] = target: Vascular endothelial growth factor receptor 2 (Homo sapiens, UniProt P35968); assay: Selectivity interaction (KinomeScan (DiscoverX)) EUB0000618a KDR; details: at 10 µM
Vascular endothelial growth factor receptor 2, sequence (P35968 whole entry): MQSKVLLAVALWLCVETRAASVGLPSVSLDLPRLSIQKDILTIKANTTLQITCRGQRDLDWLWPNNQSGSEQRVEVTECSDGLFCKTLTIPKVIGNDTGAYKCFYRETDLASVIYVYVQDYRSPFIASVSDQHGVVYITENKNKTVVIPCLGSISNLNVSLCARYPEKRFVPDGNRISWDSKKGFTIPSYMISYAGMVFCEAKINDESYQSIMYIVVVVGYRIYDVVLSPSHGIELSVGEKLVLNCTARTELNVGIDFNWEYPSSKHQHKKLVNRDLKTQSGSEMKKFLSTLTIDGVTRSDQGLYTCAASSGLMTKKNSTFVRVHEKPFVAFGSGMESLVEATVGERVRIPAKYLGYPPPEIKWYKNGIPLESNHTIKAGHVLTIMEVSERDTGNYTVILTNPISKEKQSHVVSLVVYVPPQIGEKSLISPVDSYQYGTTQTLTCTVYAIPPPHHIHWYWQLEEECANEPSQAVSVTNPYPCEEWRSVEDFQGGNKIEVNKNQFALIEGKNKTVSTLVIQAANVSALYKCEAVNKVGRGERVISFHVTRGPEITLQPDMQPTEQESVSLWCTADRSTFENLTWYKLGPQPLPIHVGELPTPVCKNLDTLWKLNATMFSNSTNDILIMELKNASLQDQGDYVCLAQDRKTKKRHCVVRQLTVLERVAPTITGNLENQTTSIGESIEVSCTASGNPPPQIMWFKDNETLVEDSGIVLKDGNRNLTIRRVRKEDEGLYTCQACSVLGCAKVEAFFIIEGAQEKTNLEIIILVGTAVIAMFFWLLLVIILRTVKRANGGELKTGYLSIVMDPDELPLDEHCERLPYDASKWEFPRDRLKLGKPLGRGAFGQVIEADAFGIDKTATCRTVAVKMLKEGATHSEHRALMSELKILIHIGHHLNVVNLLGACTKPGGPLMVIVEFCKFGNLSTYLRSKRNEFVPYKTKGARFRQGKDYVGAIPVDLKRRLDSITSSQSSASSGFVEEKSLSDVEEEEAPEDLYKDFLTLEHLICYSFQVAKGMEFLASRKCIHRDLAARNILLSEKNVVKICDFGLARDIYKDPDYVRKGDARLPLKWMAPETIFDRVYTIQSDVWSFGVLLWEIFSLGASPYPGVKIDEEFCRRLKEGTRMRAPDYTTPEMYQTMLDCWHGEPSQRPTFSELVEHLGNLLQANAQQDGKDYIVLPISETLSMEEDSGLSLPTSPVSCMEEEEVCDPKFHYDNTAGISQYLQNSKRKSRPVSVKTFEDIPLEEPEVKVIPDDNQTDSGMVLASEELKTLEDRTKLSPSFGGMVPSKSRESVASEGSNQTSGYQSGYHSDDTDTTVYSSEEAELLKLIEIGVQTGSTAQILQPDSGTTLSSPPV

[8] = target: Thyrotropin-releasing hormone receptor (Homo sapiens) (UniProt P34981); assay: Selectivity interaction (Eurofins CEREP Diversity Profile (receptors and ion channels)) EUB0000279b TRH; details: at 10 µM
Thyrotropin-releasing hormone receptor (Homo sapiens), sequence (P34981 whole entry): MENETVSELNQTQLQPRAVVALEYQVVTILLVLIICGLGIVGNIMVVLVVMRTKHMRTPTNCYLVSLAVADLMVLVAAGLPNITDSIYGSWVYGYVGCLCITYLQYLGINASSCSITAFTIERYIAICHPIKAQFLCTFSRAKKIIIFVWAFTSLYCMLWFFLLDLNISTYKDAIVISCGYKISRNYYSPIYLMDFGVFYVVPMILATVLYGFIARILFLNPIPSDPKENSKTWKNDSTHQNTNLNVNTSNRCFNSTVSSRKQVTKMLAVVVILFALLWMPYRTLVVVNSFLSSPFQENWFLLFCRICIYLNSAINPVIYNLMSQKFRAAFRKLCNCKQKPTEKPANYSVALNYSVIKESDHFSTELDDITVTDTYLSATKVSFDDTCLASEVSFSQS

[9] = tested on: ALK tyrosine kinase receptor (Homo sapiens), Q9UM73 [C1156Y]; assay: (§1) Selectivity interaction (Ambit KINOMEscan and KiNATiv profiling in Jurkat cells) EUB0000090b ALK; type: cell-based; details: at 1 µM
ALK tyrosine kinase receptor (Homo sapiens), Q9UM73 [C1156Y], sequence (Q9UM73 whole entry C1156Y, looked up): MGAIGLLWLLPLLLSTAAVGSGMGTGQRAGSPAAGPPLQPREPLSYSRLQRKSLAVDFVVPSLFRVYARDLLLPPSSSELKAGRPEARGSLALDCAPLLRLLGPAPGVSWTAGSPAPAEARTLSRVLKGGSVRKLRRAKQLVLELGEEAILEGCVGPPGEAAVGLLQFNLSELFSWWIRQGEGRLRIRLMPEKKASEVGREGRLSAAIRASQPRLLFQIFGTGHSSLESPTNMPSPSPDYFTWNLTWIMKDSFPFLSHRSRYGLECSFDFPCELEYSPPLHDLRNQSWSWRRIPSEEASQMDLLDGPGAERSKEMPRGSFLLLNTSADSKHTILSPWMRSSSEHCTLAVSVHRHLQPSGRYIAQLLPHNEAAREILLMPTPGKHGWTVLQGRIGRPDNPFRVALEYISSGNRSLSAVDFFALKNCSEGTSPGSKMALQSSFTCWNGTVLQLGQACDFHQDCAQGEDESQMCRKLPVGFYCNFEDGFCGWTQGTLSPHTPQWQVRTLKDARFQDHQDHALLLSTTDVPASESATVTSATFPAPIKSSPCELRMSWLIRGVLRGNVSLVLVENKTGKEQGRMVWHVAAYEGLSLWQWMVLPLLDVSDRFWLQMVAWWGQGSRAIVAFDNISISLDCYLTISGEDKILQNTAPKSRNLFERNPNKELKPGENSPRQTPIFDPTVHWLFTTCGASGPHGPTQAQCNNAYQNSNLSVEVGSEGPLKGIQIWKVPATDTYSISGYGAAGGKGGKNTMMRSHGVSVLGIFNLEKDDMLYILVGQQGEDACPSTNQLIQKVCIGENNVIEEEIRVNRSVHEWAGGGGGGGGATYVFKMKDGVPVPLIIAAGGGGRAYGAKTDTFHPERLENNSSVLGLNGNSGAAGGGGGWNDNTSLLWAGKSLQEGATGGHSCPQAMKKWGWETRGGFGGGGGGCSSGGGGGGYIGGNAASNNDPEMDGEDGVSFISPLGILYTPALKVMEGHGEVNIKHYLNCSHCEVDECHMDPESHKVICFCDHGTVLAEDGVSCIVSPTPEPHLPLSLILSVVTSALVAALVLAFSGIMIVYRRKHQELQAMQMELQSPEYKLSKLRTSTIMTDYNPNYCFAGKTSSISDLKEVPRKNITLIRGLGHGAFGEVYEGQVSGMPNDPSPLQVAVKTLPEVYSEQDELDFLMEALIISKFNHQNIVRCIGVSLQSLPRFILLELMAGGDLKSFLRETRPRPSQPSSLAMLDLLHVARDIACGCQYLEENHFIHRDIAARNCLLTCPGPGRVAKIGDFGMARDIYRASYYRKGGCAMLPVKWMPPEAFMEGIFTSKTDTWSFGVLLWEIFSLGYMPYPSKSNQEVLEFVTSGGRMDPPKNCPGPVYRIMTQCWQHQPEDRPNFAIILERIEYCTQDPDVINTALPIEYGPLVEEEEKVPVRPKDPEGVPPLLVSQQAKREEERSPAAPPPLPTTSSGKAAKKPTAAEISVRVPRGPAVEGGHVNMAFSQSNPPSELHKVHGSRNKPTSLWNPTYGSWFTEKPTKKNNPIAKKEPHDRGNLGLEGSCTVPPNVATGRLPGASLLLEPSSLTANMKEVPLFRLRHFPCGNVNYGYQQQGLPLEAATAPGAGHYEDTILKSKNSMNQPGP

[10] = tested on: ALK tyrosine kinase receptor (Homo sapiens), Q9UM73 [L1196M]; assay: as §1; type: cell-based; details: at 1 µM
ALK tyrosine kinase receptor (Homo sapiens), Q9UM73 [L1196M], sequence (Q9UM73 whole entry L1196M, looked up): as the sequence (Q9UM73 whole entry C1156Y, looked up) above, with Y1156C, L1196M counted along it

[11] = target: ALK tyrosine kinase receptor (Homo sapiens, UniProt Q9UM73); assay: as §1; type: cell-based; details: at 1 µM

With `Cc1ccc(-c2ccc3c(ccc4sc5c(c43)NC[C@@H](C)NC5=O)n2)cn1` the % of inhibition [1] was -14%.
Compound `CCC(=O)N1CC[C@H](Nc2ncnc3c2CN(c2cnc(OC)c(C(F)(F)F)c2)CC3)C1` [LENIOLISIB] has an IC50 [2] greater than 10 µM.
With `Cc1cc([C@@H](C)Nc2ccccc2C(=O)O)c2nc(N3CCOCC3)cc(=O)n2c1` [AZD-6482] the % of control [3] was 91%.
Compound `CNC(=O)Nc1ccc(-c2nc(N3CC4CCC(C3)O4)c3cnn(C4CCC5(CC4)OCCO5)c3n2)cc1` has a % of control [4] of 82%.
For `COCC(=O)NC/C=C/c1ccc2ncnc(Nc3ccc(Oc4ccc(C)nc4)c(C)c3)c2c1` [CP-724714], the % of control [5] was 74%.
With `O[C@H]1CC[C@H](Nc2ncc3nc(Nc4c(F)cc(F)cc4F)n([C@H]4CCOC4)c3n2)CC1` the % of control [6] was 100% and the % of control [7] was 100%.
Work on `CC(=O)c1cc(-c2ccccc2OCC2CC2)c2ncccn12` yielded a % of control [8] of 94%.
`CN(C)C/C=C/C(=O)Nc1ccc(C(=O)N2CCCC(Nc3ncc(Cl)c(-c4c[nH]c5ccccc45)n3)C2)cc1` (stereo unspecified) showed a % of control [9] of 100%, a % of control [10] of 99% and a % of control [11] of 86%.
